In patent publication US10100056B2, “SHIP1 modulators and methods related thereto” (Aquinox Pharmaceuticals (Canada) Inc., priority 2013, dated 2018):

The compounds below were run against T1, His-hSHIP1 enzyme (Homo sapiens, UniProt Q92835) (assay: His-hSHIP1 activity (phosphatase assay, IP4 substrate, Biomol Green)). Settings: second approach: ratio of initial velocities IP4 25/250 μM compared with reference compound; values without asterisk.
T1 construct: His
T1 sequence (Q92835 1-1189): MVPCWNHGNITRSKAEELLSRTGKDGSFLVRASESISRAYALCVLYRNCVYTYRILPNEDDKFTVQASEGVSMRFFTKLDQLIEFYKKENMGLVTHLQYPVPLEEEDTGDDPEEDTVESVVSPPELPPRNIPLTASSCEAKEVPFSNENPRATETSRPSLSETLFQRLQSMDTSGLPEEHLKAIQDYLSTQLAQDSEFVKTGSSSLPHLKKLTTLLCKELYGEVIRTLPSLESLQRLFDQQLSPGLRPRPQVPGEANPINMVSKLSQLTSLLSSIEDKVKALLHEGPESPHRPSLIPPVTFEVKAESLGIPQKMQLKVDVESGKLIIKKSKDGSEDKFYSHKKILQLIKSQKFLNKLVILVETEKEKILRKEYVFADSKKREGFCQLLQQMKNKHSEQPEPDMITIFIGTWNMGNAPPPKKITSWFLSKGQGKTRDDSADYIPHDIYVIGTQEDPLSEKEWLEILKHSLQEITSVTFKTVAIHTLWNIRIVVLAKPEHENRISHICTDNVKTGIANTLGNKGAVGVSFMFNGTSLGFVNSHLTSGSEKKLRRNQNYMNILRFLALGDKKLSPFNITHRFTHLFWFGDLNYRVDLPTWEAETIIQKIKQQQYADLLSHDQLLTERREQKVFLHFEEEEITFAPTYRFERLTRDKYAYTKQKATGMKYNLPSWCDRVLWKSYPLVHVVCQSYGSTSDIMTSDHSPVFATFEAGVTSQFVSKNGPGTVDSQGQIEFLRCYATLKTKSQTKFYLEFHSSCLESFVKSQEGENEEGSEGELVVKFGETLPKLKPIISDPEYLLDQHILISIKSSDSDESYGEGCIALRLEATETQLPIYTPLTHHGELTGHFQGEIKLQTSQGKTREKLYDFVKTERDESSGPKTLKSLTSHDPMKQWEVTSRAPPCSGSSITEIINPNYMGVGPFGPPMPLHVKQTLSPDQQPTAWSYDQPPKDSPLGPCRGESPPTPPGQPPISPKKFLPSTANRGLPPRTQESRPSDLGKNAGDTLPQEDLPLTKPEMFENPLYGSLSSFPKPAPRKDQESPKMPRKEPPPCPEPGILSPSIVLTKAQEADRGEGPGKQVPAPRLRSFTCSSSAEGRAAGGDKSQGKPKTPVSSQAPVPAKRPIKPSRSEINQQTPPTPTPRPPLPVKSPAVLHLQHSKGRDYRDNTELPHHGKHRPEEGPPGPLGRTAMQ
Type: biochemical
Parameters: key to Scoring, Approach 2 (Initial velocity Ratio): +++: higher than reference or reference - 15%; ++: reference - 16% to reference - 30%; +: reference - 31% or lower; −: inhibitor
Experimental: Test compounds are dissolved in 95% ethanol to form stock solutions. Before screening, the stock solutions are diluted with Phosphatase Assay Buffer (20 mM Tris-HCL, 10 mM MgCl2 pH 7.5, 0.02% Tween 20) to form working assay solutions that contain 10% ethanol. The assay is carried out on 96-well microtiter plates using a modified procedure of that reported by Ong et al., Blood 110, 1942-1949, 2007 and Yang et al., Org Lett 7, 1073-1076, 2005, both of which references are incorporated herein by reference in their entirety.
Data were generated by one of two variant methods. Test compounds are screened by one of two approaches described as follows. In the first approach, each reaction contains 5 μL of His-hSHIP1 enzyme (5-20 ng), 10 μL of the substrate, 1,3,4,5-inositol tetrakisphosphate (IP4; 50 μM final), 5 μL of Phosphatase Assay Buffer, and 5 µL of test compound at various concentrations in 10% ethanol (0-300 μM final). Control blanks are also prepared by replacing His-hSHIP1 enzyme, IP4, or test compounds with Phosphatase Assay Buffer. After adding the reaction components in a 96-well microtiter plate on ice, the reaction is mixed by briefly shaking the plate vigorously. The reaction is then incubated at 37° C. for 15 min with gentle shaking followed by addition of 100 μL of Biomol Green Reagent (BIOMOL, PA, USA) to terminate the reaction. The free phosphate released from IP4 by His-hSHIP1 binds to the Biomol Green Reagent, which turns the dye to green color. After incubating the mixture for 20 min at room temperature for color development, the absorbance is read with SpectraMax Plus 96-well plate reader (Molecular Devices, Sunnyvale, Calif., USA) at a wavelength of 650 nm.
In the second approach, a master mix is prepared that contains 50 μL of His-hSHIP1 enzyme (0.4-1.6 ng/μL final), 25 μL of the substrate, IP4 (25 or 250 μM final), and 50 μL of test compound in 3.3% ethanol (100 μL final). Control blanks are also prepared by replacing His-hSHIP1 enzyme, IP4, or test compounds with Phosphate Assay Buffer. […] Each reaction component is preincubated at 37° C. for 30 min before adding to a 96-well microtiter plate. The master mix is then incubated at 37° C. At time 0, 20, and 30 min, 25 μL of the master mix is removed and transferred to a new 96-well microtiter plate, to which 100 μL of Biomol Green Reagent is added to stop the reaction. After incubating the mixture for 20 min at room temperature for color development, the absorbance is read with SpectraMax Plus 96-well plate reader at a wavelength of 650 nm. Phosphate released is plotted against time to calculate the initial velocities (i.e., slope of the graph) at each IP4 concentration. The initial velocities are baseline corrected and the ratio of initial velocities (IP425/IP4250) is calculated and used to rate the test compounds.
With C=C1CC[C@H]2[C@H](CNCc3ccccc3C)[C@@H]([C@@]3(C)CC[C@H](O)C[C@@H]3CO)CC[C@]12C [Cpd. No. 15, (1S,3S,4R)-3-(hydroxymethyl)-4-methyl-4-((3aS,4R,5S,7aS)-7a-methyl-4-((2-methylbenzylamino)methyl)-1-methyleneoctahydro-1H-inden-5-yl)cyclohexanol] the “Scoring, Approach 2 (Initial velocity Ratio)” value was “++”. For C=C1CC[C@H]2[C@H](Cn3cccn3)[C@@H]([C@@]3(C)CC[C@H](O)C[C@@H]3CO)CC[C@]12C [Cpd. No. 26, (1S,3S,4R)-4-((3aS,4R,5S,7aS)-4-((1H-pyrazol-1-yl)methyl)-7a-methyl-1-methyleneoctahydro-1H-inden-5-yl)-3-(hydroxymethyl)-4-methylcyclohexanol], the “Scoring, Approach 2 (Initial velocity Ratio)” value was “++”. In the case of C=C1CC[C@H]2[C@H](CNCc3ccc4c(c3)OC(F)(F)O4)[C@@H]([C@@]3(C)CC[C@H](O)C[C@@H]3CO)CC[C@]12C [Cpd. No. 37, (1S,3S,4R)-4-((3aS,4R,5S,7aS)-4-(((2,2-difluorobenzo[d][1,3]dioxol-5-yl)methylamino)methyl)-7a-methyl-1-methyleneoctahydro-1H-inden-5-yl)-3-(hydroxymethyl)-4-methylcyclohexanol], the “Scoring, Approach 2 (Initial velocity Ratio)” value is reported as “++”. With C=C1CC[C@H]2[C@H](CCN(Cc3ccc(OC)cc3)Cc3ccc(OC)cc3)[C@@H]([C@@]3(C)CC[C@H](O)C[C@@H]3O)CC[C@]12C [Cpd. No. 43, (1S,3S,4R)-4-((3aS,4S,5S,7aS)-4-(2-(bis(4-methoxybenzyl)amino)ethyl)-7a-methyl-1-methyleneoctahydro-1H-inden-5-yl)-4-methylcyclohexane-1,3-diol] the “Scoring, Approach 2 (Initial velocity Ratio)” value was “++”. With C=C1CC[C@H]2[C@H](CCNCc3ccc(OC)cc3)[C@@H]([C@@]3(C)CC[C@H](O)C[C@@H]3O)CC[C@]12C [Cpd. No. 44, (1S,3S,4R)-4-((3aS,4S,5S,7aS)-4-(2-(4-methoxybenzylamino)ethyl)-7a-methyl-1-methyleneoctahydro-1H-inden-5-yl)-4-methylcyclohexane-1,3-diol] the “Scoring, Approach 2 (Initial velocity Ratio)” value was “++”. C=C1CC[C@H]2[C@H](CCNCc3ccc4c(c3)OCO4)[C@@H]([C@@]3(C)CC[C@H](O)C[C@@H]3O)CC[C@]12C [Cpd. No. 45, (1S,3S,4R)-4-((3aS,4S,5S,7aS)-4-(2-(benzo[d][1,3]dioxol-5-ylmethylamino)ethyl)-7a-methyl-1-methyleneoctahydro-1H-inden-5-yl)-4-methylcyclohexane-1,3-diol] was tested, and the “Scoring, Approach 2 (Initial velocity Ratio)” value was “−”. For C=C1CC[C@H]2[C@H](CN)[C@@H]([C@@]3(C)CC[C@H](O)C[C@@H]3CN)CC[C@]12C [Cpd. No. 47, (1S,3S,4R)-3-(aminomethyl)-4-((3aS,4R,5S,7aS)-4-(aminomethyl)-7a-methyl-1-methyleneoctahydro-1H-inden-5-yl)-4-methylcyclohexanol], the “Scoring, Approach 2 (Initial velocity Ratio)” value was “+”. With C=C1CC[C@H]2[C@H](O)[C@@H]([C@@]3(C)CC[C@H](O)C[C@@H]3CCn3cccc3)CC[C@]12C [Cpd. No. 52, (3aR,4R,5R,7aS)-5-((1S,2S,4S)-2-(2-(1H-pyrrol-1-yl)ethyl)-4-hydroxy-1-methylcyclohexyl)-7a-methyl-1-methyleneoctahydro-1H-inden-4-ol] the “Scoring, Approach 2 (Initial velocity Ratio)” value was “−”. In the case of C=C1CC[C@H]2[C@H](O)[C@@H]([C@@]3(C)CC[C@H](O)C[C@@H]3CCOc3cnccn3)CC[C@]12C [Cpd. No. 56, (3aR,4R,5R,7aS)-5-((1S,2S,4S)-4-hydroxy-1-methyl-2-(2-(pyrazin-2-yloxy)ethyl)cyclohexyl)-7a-methyl-1-methyleneoctahydro-1H-inden-4-ol], the “Scoring, Approach 2 (Initial velocity Ratio)” value is reported as “−”.
